US12139498B1, “Positive allosteric modulators of the muscarinic acetylcholine receptor M4” (Vanderbilt University, priority 2023, dated 2024)

Tests used:
[1] = Fraction unbound in cyno plasma; assay type: in vitro ADME; details: cynomolgus monkey, read-out: Cyno Fu (plasma)
Description: (§1) Compound 70 was tested in several in in vitro assays to investigate both metabolism and pharmacokinetics. These assays may be performed according to known methods as generally described in the following references: Conde-Ceide et al. ACS Med. Chem. Lett. 2015, 6, 716-720; Morris et al. J. Med. Chem. 2014, 57, 10192-10197; and Bubser et al. ACS Chem. Neurosci. 2014, 5, 920-942.

[2] = Fraction unbound in rat brain; assay type: in vitro ADME; details: read-out: Rat Fu (brain)
Description: as §1

Rat intrinsic clearance = assay type: in vitro ADME
Description: as §1

Cyno intrinsic clearance = assay type: in vitro ADME; details: cynomolgus monkey
Description: as §1

P450 3A4 = P450 3A4 (Homo sapiens, UniProt P08684); assay: P450 3A4 inhibition; assay type: in vitro ADME
P450 3A4, sequence (P08684 whole entry): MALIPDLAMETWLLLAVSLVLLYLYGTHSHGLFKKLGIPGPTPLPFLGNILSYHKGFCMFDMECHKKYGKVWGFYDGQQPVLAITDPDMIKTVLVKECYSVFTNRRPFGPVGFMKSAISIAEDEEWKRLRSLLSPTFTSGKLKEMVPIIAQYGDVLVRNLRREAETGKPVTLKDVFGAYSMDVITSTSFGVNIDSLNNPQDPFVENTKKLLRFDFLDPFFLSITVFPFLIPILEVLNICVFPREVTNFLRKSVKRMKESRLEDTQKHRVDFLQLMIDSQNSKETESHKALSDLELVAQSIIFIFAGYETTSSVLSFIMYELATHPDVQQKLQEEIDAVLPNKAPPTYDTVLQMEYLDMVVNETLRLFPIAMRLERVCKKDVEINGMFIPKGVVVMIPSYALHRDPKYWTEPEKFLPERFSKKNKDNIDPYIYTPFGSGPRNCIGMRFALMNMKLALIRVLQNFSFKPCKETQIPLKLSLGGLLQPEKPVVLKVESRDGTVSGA
Description: as §1

[3] = In vivo pharmacokinetics in cynomolgus monkey; details: plasma
Description: Compound 70 was tested in several in vivo assays and the pharmacokinetic parameters listed in the following table may be determined from pharmacokinetic studies in rat, dog, or cynomolgus monkey, according to known methods as generally described in the following references: Garrison et al. J. Med. Chem. 2022, 65, 6273-6286; Felts et al. J. Med. Chem 2017, 60, 5072-5085; and Yu et al. J. Med. Chem. 2021, 64, 4709-4729.

male Sprague-Dawley rats = assay: Amphetamine-induced hyperlocomotion in rats; details: 100 mg/kg i.p., amphetamine 0.25 mg/kg s.c., p<0.001

Cc1c(N2CCc3nc(C4(F)CC4)sc3C2)nc2nn(C)c(=O)n2c1C [Compound 70, 7-(2-(1-fluorocyclopropyl)-6,7-dihydrothiazolo[5,4-c]pyridin-5(4H)-yl)-2,5,6-trimethyl-[1,2,4]triazolo[4,3-a]pyrimidin-3(2H)-one]
fraction unbound [1]: 0.177 | fraction unbound [2]: 0.06 | CLint scaled (Rat intrinsic clearance): 36 mL/min/kg | CLint scaled (Cyno intrinsic clearance): 24 mL/min/kg | IC50 (P450 3A4): > 30 µM | clearance ([3]; read-out: Cyno CLp): 4.9 mL/min/kg | half-life ([3]; read-out: Cyno Elim. t1/2 (converted)): 4.2 h | Vd ([3]; read-out: Cyno Vss): 1.4 L/kg | percent reversal of amphetamine-induced hyperlocomotion (male Sprague-Dawley rats): 61.1%
